One data set addresses α2AAR/Arr3 interaction (Mus musculus, UniProt Q01338). The note with it: 1 µM, live HEK 293 cells.
For data set [1], the target named is T1, HA-α2AAR (Mus musculus, UniProt Q01338).
T1 sequence (Q01338 1-465): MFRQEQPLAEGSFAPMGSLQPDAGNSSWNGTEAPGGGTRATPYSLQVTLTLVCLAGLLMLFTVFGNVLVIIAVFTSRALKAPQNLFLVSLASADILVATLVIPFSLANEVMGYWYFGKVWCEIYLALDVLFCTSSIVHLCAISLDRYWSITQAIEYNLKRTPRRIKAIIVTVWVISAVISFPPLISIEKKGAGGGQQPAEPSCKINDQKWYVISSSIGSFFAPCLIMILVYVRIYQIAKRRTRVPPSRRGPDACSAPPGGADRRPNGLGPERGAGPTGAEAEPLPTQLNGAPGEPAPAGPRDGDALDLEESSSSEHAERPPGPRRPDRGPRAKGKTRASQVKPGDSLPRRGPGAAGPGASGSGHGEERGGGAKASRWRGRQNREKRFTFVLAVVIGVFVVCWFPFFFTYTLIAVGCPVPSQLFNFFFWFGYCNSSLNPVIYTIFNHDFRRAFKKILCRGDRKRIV
The note with it: 1 µM.

The target in data set [2] is T1, HA-α2AAR. Conditions: 1 µM, 30 min.
For data set [3] the following is noted: clinical blood plasma level; ref Baldessarini and Tarazi (2006); cited from earlier work.
A further data set has as its target human α2AAR. Conditions: ref NIMH Psychoactive Drug Screening Program (PDSP) Ki Database, cited from earlier work.
Data set [4] has as its system α2AAR-mediated activation of the ERK1/2 MAP kinase pathway. As to the kind of experiment: Western blot for phospho-ERK1/2 in WT MEF cells. It is filed as cell-based, murine. The note with it: 1 µM. Background: Immunoblotting shows a protein as a band on a membrane.
For a further data set, the target named is T2, α2AAR (Mus musculus, UniProt Q01338).
T2 sequence (Q01338 1-465): T1 sequence (Q01338 1-465)
The data set can be described thus: cAMP assay. The data set is classed as cell-based, murine. Conditions: ligand 10 µM, 10 µM forskolin, 20 min. On the technique in general: Changes in cAMP serve as a functional read-out for many G protein-coupled receptors.

SMILES strings stand for the structures. “And” between values parts separate entries of the source, which are not always exact repeats. Equal values may be shown once. Read-outs that look alike come from different tables or passages of the source.

Chain of α2AAR/Arr3 interaction (P32121 whole entry partner, one chain of several): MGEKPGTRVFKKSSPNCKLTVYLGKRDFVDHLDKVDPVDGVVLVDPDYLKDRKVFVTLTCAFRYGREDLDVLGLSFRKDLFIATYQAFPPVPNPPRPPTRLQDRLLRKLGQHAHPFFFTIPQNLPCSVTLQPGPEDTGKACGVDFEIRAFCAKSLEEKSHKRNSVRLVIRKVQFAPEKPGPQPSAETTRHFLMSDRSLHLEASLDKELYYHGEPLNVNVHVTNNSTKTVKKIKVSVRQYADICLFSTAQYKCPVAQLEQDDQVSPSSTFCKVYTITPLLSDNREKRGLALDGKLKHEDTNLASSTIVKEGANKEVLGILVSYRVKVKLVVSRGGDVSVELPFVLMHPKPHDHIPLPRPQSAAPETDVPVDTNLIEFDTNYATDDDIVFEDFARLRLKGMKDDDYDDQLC

In the case of `CN(C)CCCN1c2ccccc2Sc2ccc(Cl)cc21` [Chlorpromazine, chlorpromazine], the “α2AAR/Arr3 interaction (FLIM-FRET efficiency)” value at α2AAR/Arr3 interaction was “robust α2AAR/Arr3 interaction”. On HA-α2AAR [1] (WT MEF cells), the “receptor loss from the cell surface” value is about 30%. For the same molecule, the “α2AAR endocytic response in arrestin-null (Arr2,3−/−) MEF cells” value at HA-α2AAR [1] (5, 10, 30 min) is reported as “lost”. On HA-α2AAR [2], the “α2AAR endocytosis (intracellular punctae)” value is reported as “robust α2AAR endocytosis”. Besides, the Therapeutic range in data set [3] was 90 to 2350 nM. Also, the Ki at human α2AAR (read-out: Reported values at human α2AAR, Avg.) is 0.251 µM; at human α2AAR (read-out: Reported values at human α2AAR, Range), 0.078 to 0.558 µM.
Take `CN1CCN(C2=Nc3cc(Cl)ccc3Nc3ccccc32)CC1` [Clozapine, clozapine]: in data set [4], the “ERK1/2 activation (pERK1/2)” value is “unable to detect any ERK1/2 activation”.
As to `OCCN1CCN(CCCN2c3ccccc3Sc3ccc(C(F)(F)F)cc32)CC1` [Fluphenazine, fluphenazine], the Therapeutic range in data set [3] is 20–100 ng/ml and 50–230 nM.
With `NC[C@H](O)c1ccc(O)c(O)c1` [NE, norepinephrine], the “Gαi-mediated inhibition of cAMP production” value on α2AAR was about 50%.

These data come from PMC5385157 (Neuropharmacology, 2016).
